Data set [1] can be described thus: Metabolic stability in dog hepatocytes. Format: in vitro ADME. The settings on record: pooled cryopreserved hepatocytes; beagle dog hepatocytes, 2 μM compound, 500,000 cells/mL, 37° C.; read-out: Dog Hepatocyte Stability (T½: min). How it is done: The following procedure was used to determine the stability of test compounds in beagle dog hepatocytes in a 96-well plate format. The test compounds, including the controls, imipramine and 7-ethoxycoumarin, were dissolved at 10 mM in DMSO, followed by further 5-fold dilution with DMSO to 2 mM. Pooled cryopreserved beagle dog hepatocytes were thawed and transferred into complete medium. Cells were gently centrifuged (700 rpm for 5 min) and the pellet rinsed with KHB (Krebs Henseleit buffer). Cells were resuspended, counted using Trypan blue, and adjusted to 1 million cells/mL in KHB buffer. The 2 mM compound stock solutions were diluted 10-fold with acetonitrile, followed by a further 50-fold dilution with KHB buffer. 200 μL of these compound solutions were transferred to 96-well polypropylene assay plates and an equal volume of the hepatocyte solution was added and mixed to initiate the reaction (final assay concentrations were 2 μM compound and 500,000 cells/mL). Assay plates were incubated at 37° C. in 5% CO2 with gentle agitation. 50 μL aliquots were removed at multiple time points out to 180 minutes and quenched with 6 volumes of cold acetonitrile (containing 250 ng/mL of carbutamide and chrysin as internal standards) to terminate the reaction and precipitate protein. Quenched samples were maintained on ice. The quenched samples were centrifuged at 2000×g (3100 rpm) for 10 minutes at 4° C. 50 μL aliquots of the supernatants were removed and diluted with 100 μL Milli-Q water to reduce the % organic content prior to bioanalysis by LC-MS/MS. Peak areas corresponding to the test compound were recorded. The compound remaining was calculated by comparing the peak area at each time point to time zero. Data were analyzed and results were calculated using Microsoft Excel 2010.

Data set [2] in a line: Aqueous solubility in PBS pH 7.4. As to conditions: phosphate buffered saline, aqueous buffer, kinetic from dmso stock, PBS pH 7.4, room temperature. The data set is classed as physicochemical. A digest of the protocol: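 Compound at 200 μM nominal in PBS pH 7.4 (2% DMSO final), incubated 24 h at room temperature, then centrifuged. Supernatant analysed by HPLC-UV/VIS, solubility from peak area against a 200 μM calibration standard; range approx. 0.5-200 μM.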

A further data set deals with T1, Thrombin (Homo sapiens, UniProt P00734).
T1 construct: Thrombin; 0.2 μM in 50% glycerol (7.34 μg/mL)
As to the kind of experiment: Dose response assay for protease inhibitors: thrombin. The settings on record: ratio versus Factor XIa. The data set is classed as biochemical.

Another data set concerns the target T2, Factor Xa (Homo sapiens, UniProt P00742).
T2 construct: Factor Xa; 0.2 μM in 50% glycerol (9.2 μg/mL)
As to the kind of experiment: Dose response assay for protease inhibitors: Factor Xa. The data set is classed as biochemical. The settings on record: ratio versus Factor XIa.

Converted amounts (≈) assume the structure as drawn.

T2 sequence (P00742 235-488 limits assumed): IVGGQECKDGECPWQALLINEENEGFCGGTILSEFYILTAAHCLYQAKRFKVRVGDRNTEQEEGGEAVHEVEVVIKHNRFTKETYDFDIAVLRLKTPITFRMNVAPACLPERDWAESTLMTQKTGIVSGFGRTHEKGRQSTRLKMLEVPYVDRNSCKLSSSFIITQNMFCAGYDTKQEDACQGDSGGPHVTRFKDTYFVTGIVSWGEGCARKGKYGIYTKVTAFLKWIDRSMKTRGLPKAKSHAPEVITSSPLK
T2 sequence (P00742 41-179 partner limits assumed): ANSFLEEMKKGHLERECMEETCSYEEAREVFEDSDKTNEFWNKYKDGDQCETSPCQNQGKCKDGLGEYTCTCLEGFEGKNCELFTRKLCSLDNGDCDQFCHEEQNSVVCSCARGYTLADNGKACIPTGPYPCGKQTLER

Broadly, the solubility is the dissolved amount per volume that the medium holds. High values mean much dissolved substance, low ones little dissolved substance. In the case of `CC[C@@H](NC(=O)N1C(=O)[C@H](Cc2ccnc(N)c2)[C@H]1C(=O)N(C)c1ncccn1)c1cccc(Cl)c1` [Compound 121], the half-life at 2 μM in data set [1] is < 1 h. Also, in data set [2], the solubility at 24 h is > 100 µM. For the same compound, the “Ratio: Thrombin/FXIa” value on Thrombin is recorded as “H (“H” indicates 101-1000)”. On Factor Xa, the “FXa/FXIa (selectivity ratio)” value is “I (“I” indicates >500)”.

In the case of `CC[C@@H](NC(=O)N1C(=O)[C@H](Cc2cc(C)nc(N)c2)[C@H]1C(=O)N(C)c1ccccc1)c1cccc(Cl)c1` [Compound 120], the half-life at 2 μM in data set [1] is 2.02 to 4 h. This compound returned a solubility at 24 h in data set [2] of 10 to 100 µM (≈ 5.2 to 52 µg/mL). The “Ratio: Thrombin/FXIa” value on Thrombin is “H (“H” indicates 101-1000)”. For the same compound, the “FXa/FXIa (selectivity ratio)” value on Factor Xa is reported as “I (“I” indicates >500)”.

For the compound `CC[C@@H](NC(=O)N1C(=O)[C@H](Cc2ccnc(N)c2)[C@H]1C(=O)N(C)c1ccncc1)c1ccc(Cl)cc1` [Compound 89], in data set [1], the half-life at 2 μM was > 4 h. For the same compound, the solubility at 24 h in data set [2] was > 100 µM. Also, the “Ratio: Thrombin/FXIa” value on Thrombin is reported as “H (“H” indicates 101-1000)”. In addition, the “FXa/FXIa (selectivity ratio)” value at Factor Xa is “H (“H” indicates 101-1000)”.

As for `CC[C@@H](NC(=O)N1C(=O)[C@H](Cc2ccnc(N)c2)[C@H]1C(=O)N(C)c1ncncn1)C1CCCCC1` [Compound 81], in data set [1], the half-life at 2 μM was < 1 h. Also, the solubility at 24 h in data set [2] was > 100 µM. The “Ratio: Thrombin/FXIa” value at Thrombin is “H (“H” indicates 101-1000)”. At Factor Xa, the “FXa/FXIa (selectivity ratio)” value is given as “I (“I” indicates >500)”.

As for `CC[C@@H](NC(=O)N1C(=O)[C@H](Cc2ccnc(N)c2)[C@H]1C(=O)N(C)c1ccncc1)c1cccc(C#N)c1` [Compound 99], the half-life at 2 μM in data set [1] is > 4 h. Also, the solubility at 24 h in data set [2] is > 100 µM. In addition, at Thrombin, the “Ratio: Thrombin/FXIa” value was “H (“H” indicates 101-1000)”. The “FXa/FXIa (selectivity ratio)” value at Factor Xa is recorded as “I (“I” indicates >500)”.

In the case of `CC[C@@H](NC(=O)N1C(=O)[C@H](Cc2ccnc(N)c2)[C@H]1C(=O)N(C)c1ccccc1)C1CCCCC1` [Compound 27], the half-life at 2 μM in data set [1] fell in the range of 2.02 to 4 h. Also, the solubility at 24 h in data set [2] was > 100 µM. The “Ratio: Thrombin/FXIa” value at Thrombin was “H (“H” indicates 101-1000)”. Further, the “FXa/FXIa (selectivity ratio)” value at Factor Xa is “I (“I” indicates >500)”.

Consider `CC[C@@H](NC(=O)N1C(=O)[C@H](Cc2ccnc(N)c2)[C@H]1C(=O)N(C)c1ccncc1)c1ccccc1` [Compound 42], for which the half-life at 2 μM in data set [1] was 2.02 to 4 h. The solubility at 24 h in data set [2] is > 100 µM. The “Ratio: Thrombin/FXIa” value at Thrombin is given as “H (“H” indicates 101-1000)”. Further, the “FXa/FXIa (selectivity ratio)” value on Factor Xa is recorded as “I (“I” indicates >500)”.

Regarding `CC[C@@H](NC(=O)N1C(=O)[C@H](Cc2ccnc(NC)c2)[C@H]1C(=O)N(C)c1ncccn1)C1CCCCC1` [Compound 80], the half-life at 2 μM in data set [1] was < 1 h. In data set [2], the solubility at 24 h is > 100 µM. The “Ratio: Thrombin/FXIa” value on Thrombin was “H (“H” indicates 101-1000)”. Also, the “FXa/FXIa (selectivity ratio)” value at Factor Xa is reported as “I (“I” indicates >500)”.

In the case of `CN(C(=O)[C@@H]1[C@@H](Cc2ccnc(N)c2)C(=O)N1C(=O)N[C@@H](C1CCCCC1)C1CC1)c1ccccc1` [Compound 36], in data set [1], the half-life at 2 μM is < 1 h. In addition, in data set [2], the solubility at 24 h is > 100 µM. The “Ratio: Thrombin/FXIa” value on Thrombin is on record as “H (“H” indicates 101-1000)”. In addition, the “FXa/FXIa (selectivity ratio)” value on Factor Xa is listed as “I (“I” indicates >500)”.

As to `CC[C@@H](NC(=O)N1C(=O)[C@H](Cc2ccnc(N)c2)[C@H]1C(=O)N(C)c1ccncc1)C1CCCCC1` [Compound 25], in data set [1], the half-life at 2 μM lay within 2.02 to 4 h. In data set [2], the solubility at 24 h is > 100 µM. Moreover, the “Ratio: Thrombin/FXIa” value on Thrombin is “I (“I” indicates >500)”. The “FXa/FXIa (selectivity ratio)” value at Factor Xa was “I (“I” indicates >500)”.

As for `CC[C@H](NC(=O)N1C(=O)[C@H](Cc2ccnc(N)c2)[C@H]1C(=O)N(C)c1ccncc1)c1ccccc1C` [Compound 97], the half-life at 2 μM in data set [1] fell in the range of 2.02 to 4 h. Besides, in data set [2], the solubility at 24 h was > 100 µM. The “Ratio: Thrombin/FXIa” value on Thrombin is given as “H (“H” indicates 101-1000)”. The “FXa/FXIa (selectivity ratio)” value on Factor Xa was “I (“I” indicates >500)”.

Consider `CN(C(=O)[C@@H]1[C@@H](Cc2ccnc(N)c2)C(=O)N1C(=O)N[C@@H](C1CCCCC1)C1CC1)c1ccncc1` [Compound 52], for which, in data set [1], the half-life at 2 μM is < 1 h. The solubility at 24 h in data set [2] was > 100 µM. Moreover, on Thrombin, the “Ratio: Thrombin/FXIa” value was “H (“H” indicates 101-1000)”. In addition, at Factor Xa, the “FXa/FXIa (selectivity ratio)” value was “I (“I” indicates >500)”.

For the compound `CC[C@@H](NC(=O)N1C(=O)[C@H](Cc2ccnc(NC(=O)OC(C)(C)C)c2)[C@H]1C(=O)N(C)c1ccncc1)c1cccc(Cl)c1` [Compound 127], the half-life at 2 μM in data set [1] was < 1 h. Besides, the solubility at 24 h in data set [2] lay within 10 to 100 µM (≈ 6.07 to 60.7 µg/mL). In addition, the “Ratio: Thrombin/FXIa” value at Thrombin is “H (“H” indicates 101-1000)”. Moreover, the “FXa/FXIa (selectivity ratio)” value on Factor Xa is “H (“H” indicates 101-1000)”.

`CN(C(=O)[C@@H]1[C@@H](Cc2ccnc(N)c2)C(=O)N1C(=O)N[C@@H](C1CC1)C(F)(F)F)c1ncccn1` [Compound 78]: the half-life at 2 μM in data set [1] is < 1 h. Also, the solubility at 24 h in data set [2] was > 100 µM. Moreover, the “Ratio: Thrombin/FXIa” value at Thrombin is listed as “H (“H” indicates 101-1000)”. The “FXa/FXIa (selectivity ratio)” value at Factor Xa is listed as “I (“I” indicates >500)”.

Turning to `CN(C(=O)[C@@H]1[C@@H](Cc2ccnc(N)c2)C(=O)N1C(=O)NC(c1ccccc1)c1ccccc1)c1ccncc1` [Compound 82], the half-life at 2 μM in data set [1] is 2.02 to 4 h. Besides, the solubility at 24 h in data set [2] was > 100 µM. Further, at Thrombin, the “Ratio: Thrombin/FXIa” value is reported as “H (“H” indicates 101-1000)”. Moreover, at Factor Xa, the “FXa/FXIa (selectivity ratio)” value is given as “I (“I” indicates >500)”.

`CC[C@@H](NC(=O)N1C(=O)[C@H](Cc2cc(C)nc(N)c2)[C@H]1C(=O)N(C)c1ccccc1)C1CCCCC1` [Compound 91]: in data set [1], the half-life at 2 μM was 1.02 to 2 h. Moreover, the solubility at 24 h in data set [2] was > 100 µM. For the same compound, the “Ratio: Thrombin/FXIa” value at Thrombin is recorded as “H (“H” indicates 101-1000)”. Further, the “FXa/FXIa (selectivity ratio)” value at Factor Xa is recorded as “I (“I” indicates >500)”.

Consider `CN(C(=O)[C@@H]1[C@@H](Cc2ccnc(N)c2)C(=O)N1C(=O)N[C@@H](C1CCCCC1)C(F)(F)F)c1ncccn1` [Compound 21], for which the half-life at 2 μM in data set [1] was < 1 h. The solubility at 24 h in data set [2] was > 100 µM. Also, on Thrombin, the “Ratio: Thrombin/FXIa” value is on record as “H (“H” indicates 101-1000)”. The “FXa/FXIa (selectivity ratio)” value on Factor Xa was “I (“I” indicates >500)”.

As to `CC[C@@H](NC(=O)N1C(=O)[C@H](Cc2ccnc(N)c2)[C@H]1C(=O)N(C)c1ccncc1)c1ccccc1Cl` [Compound 95], in data set [1], the half-life at 2 μM lay within 2.02 to 4 h. The solubility at 24 h in data set [2] was > 100 µM. Further, the “Ratio: Thrombin/FXIa” value at Thrombin is recorded as “H (“H” indicates 101-1000)”. Besides, the “FXa/FXIa (selectivity ratio)” value at Factor Xa is on record as “I (“I” indicates >500)”.

With `C[C@@H](NC(=O)N1C(=O)[C@H](Cc2ccnc(N)c2)[C@H]1C(=O)N(C)c1ccccc1)C1CCCCC1` [Compound 49], in data set [1], the half-life at 2 μM was < 1 h. For the same compound, the solubility at 24 h in data set [2] was > 100 µM. In addition, on Thrombin, the “Ratio: Thrombin/FXIa” value was “H (“H” indicates 101-1000)”. In addition, on Factor Xa, the “FXa/FXIa (selectivity ratio)” value is reported as “I (“I” indicates >500)”.

For the compound `CC[C@@H](NC(=O)N1C(=O)[C@H](Cc2ccnc(N)c2)[C@H]1C(=O)N(C)c1ccccc1)c1cccnc1` [Compound 44], the half-life at 2 μM in data set [1] was 2.02 to 4 h. For the same compound, the solubility at 24 h in data set [2] is > 100 µM. In addition, the “Ratio: Thrombin/FXIa” value at Thrombin is “G (“G” indicates 1-100)”. The “FXa/FXIa (selectivity ratio)” value on Factor Xa is “I (“I” indicates >500)”.

Source of the values: patent US20190315711A1 (eXIthera Pharmaceuticals, Inc., priority 2016, published 2019).
